Measurements from patent US12275733B2, “Substituted pyrido[3,4-b]indoles for the treatment of cartilage disorders” (Sanofi, priority 2016, dated 2025).

Tested on: ATDC5 cells
Assay: Chondrogenesis activity assay in ATDC5 cells (collagen type II induction, immunofluorescence)
Assay type: cell-based, mouse
Settings: Mus musculus; for EC50: collagen type II induction in ATDC5 cells, concentration reaching 50% of maximum induction; for Emax: maximum percent induction of collagen type II relative to internal reference compound at 10 μM, ATDC5 cells
Protocol: A) Chondrogenesis Activity Assay in ATDC5 Cells
The chondrogenic potential of the compounds of the invention was determined using clonal mouse chondrogenic ATDC5 cells (T. Atsumi et al., Cell Differ. Dev. 1990, 30, 109-116). ATDC5 cells are derived from mouse embryonic AT805 teratocarcinoma cells and are used frequently to study the multistep chondrogenic differentiation process from precursor cells into chondrocytes (C. Shukunami et al., Exp. Cell Res. 1998, 241, 1-11; H. Aklyami et al., J. Bone Miner. Res. 1996, 11, 22-28; H. Akiyami et al., Biochem. Biophys. Res. Commun. 1997, 235, 142-147; C. Shukunami et al., J. Cell Biol. 1996, 133, 457-468; C. Shukunami et al., J. Bone Miner. Res. 1997, 12, 1174-1188). Undifferentiated ATDC5 cells grow in vitro until confluence, showing a fibroblast-like morphology. In the presence of insulin, cells undergo transient condensation and form numerous nodular structures (cartilage nodules). The cartilagenous nature of these nodules was shown by Alcian Blue staining as evidence of the production of proteoglycan (aggrecan) and collagen type II expression (by expression analysis), both molecular markers of chondrocytes (C. Shukunami et al., J. Cell Biol. 1996, 133, 457-468).
Chondrogenic differentiation of ATDC5 cells into chondrocytes by the compounds of the invention was determined by measuring the induction of type II collagen protein as a marker of chondrocytes, a structural component of the extracellular matrix which constitutes more than 80% of cartilage mass (D. R. Eyre, Clin. Orthop. Relat. Res. 2004, 427 Suppl, S118-S122). ATDC5 cells were obtained from RIKEN and cultured as monolayer in basal culture medium (Dulbecco's Modified Eagle Medium/Nutrient Mixture F-12 (DMEM/F12, Invitrogen, #31331-093) supplemented with 10 μg/ml Transferrin (Roche, #10652 202001), 3×10E−8 M sodium seienite (Sigma, #S-5261) and 5% Fetal Calf Serum (FCS Gold, PAA, #A15-251)), at 37° C., and 5% CO2 in plastic flasks of 75 cm^2 or 300 cm^2 subconfluently for propagation. ATDC5 cells were harvested and resuspended in differentiation culture medium that consisted of basal culture medium complemented with 10 μg/ml insulin (Sigma, #19278), to initiate chondrogenic differentiation. For studying the effect of test compounds, the ATDC5 cells were plated in 96-well plates (3.0×10E4 cells per well in 200 μl of differentiation culture medium). Test compounds dissolved in DMSO were added to yield increasing compound concentrations, typically from 40 nM to 10 μM, and a final DMSO concentration of 0.1%. On each 96-well plate, control wells containing no test compound but the same concentration of DMSO, i.e. untreated cells, were included and used as reference for the determination of the effect of the test compounds on the cells, and wells containing an internal reference compound at a concentration of 10 μM were included and used as positive control and for standardizing the results. Cells in the wells were incubated for 4 days at 37° C., and 5% CO2, followed by quantification of intracellular collagen type II.
Quantification of collagen type II in the ATDC5-cells was done by immunofluorescence staining of collagen type II, and fluorescence intensity was measured using a cellular high content imaging system (ImageXpress, Molecular Device). For immunofluorescence staining of intracellular collagen, medium was removed after compound incubation and cells were fixed with 200 μl/well methanol/water (95%/5%). Cells were permeabilized in 200 μl/well phosphate-buffered saline (PBS) containing 0.2% Triton X100 for 15 min and, after removal of the solution, blocked for 30 min with 200 μl/well PBS/0.2% Triton X100 containing 1% bovine serum albumin (BSA) to avoid unspecific binding. After the blocking step, the solution was removed and collagen type II staining solution was added. […]

Row | SMILES | EC50 | Emax
1 | CCn1c2c(-c3cnn(CCO)c3)cc(Cl)cc2c2ccnc(C)c21 [Example 44, 2-[4-(6-Chloro-9-ethyl-1-methyl-9H-pyrido[3,4-b]indol-8-yl)-pyrazol-1-yl]-ethanol] | 670 nM | > 80%
2 | Cc1nccc2c3cc(Cl)cc(-c4ccc(C#N)nc4)c3n(CC3CC3)c12 [Example 47, 5-(6-Chloro-9-cyclopropylmethyl-1-methyl-9H-pyrido[3,4-b]indol-8-yl)-pyridine-2-carbonitrile] | > 10000 nM | 20 to 50%
3 | Cc1cc(-c2cc(Cl)cc3c4ccnc(C)c4n(CC4CC4)c23)cnc1C#N [Example 48, 5-(6-Chloro-9-cyclopropylmethyl-1-methyl-9H-pyrido[3,4-b]indol-8-yl)-3-methyl-pyridine-2-carbonitrile] | 41 nM | < 20%
4 | Cc1nccc2c3cc(Cl)cc(-c4cnc5c(c4)OCCN5C)c3n(CC3CC3)c12 [Example 49, 6-Chloro-9-cyclopropymethyl-1-methyl-8-(4-methyl-3,4-dihydro-2H-pyrido[3,2-b][1,4]oxazin-7-yl)-9H-pyrido[3,4-b]indole] | 41 nM | < 20%
5 | Cc1nccc2c3cc(Cl)cc(-c4ccc(N5CCCC5)nc4)c3n(CC3CC3)c12 [Example 50, 6-Chloro-9-cyclopropylmethyl-1-methyl-8-(6-pyrrolidin-1-ylpyridin-3-yl)-9H-pyrido[3,4-b]indole] | 130 nM | < 20%
6 | Cc1nccc2c3cc(Cl)cc(-c4ccc(N5CCN(C)CC5)nc4)c3n(CC3CC3)c12 [Example 51, 6-Chloro-9-cyclopropylmethyl-1-methyl-8-[6-(4-methyl-piperazin-1-yl)-pyridin-3-yl]-pyrido[3,4-b]indole] | > 10000 nM | < 20%
7 | COc1ccc(-c2cc(Cl)cc3c4ccncc4n(CC4(C)COC4)c23)cc1 [Example 52, 6-Chloro-8-(4-methoxy-phenyl)-9-(3-methyl-oxetan-3-ylmethyl)-9H-pyrido[3,4-b]indole] | 1200 nM | 50 to 80%
8 | Nc1ccc(-c2cc(Cl)cc3c4ccncc4n(CC4CC4)c23)c(Cl)n1 [Example 53, 6-Chloro-5-(6-chloro-9-cyclopropylmethyl-9H-pyrido[3,4-b]indol-8-yl)-pyridin-2-ylamine] | 2100 nM | 50 to 80%
9 | CCn1c2cnccc2c2cc(Cl)cc(-c3ccc(Cl)nc3)c21 [Example 54, 6-Chloro-8-(6-chloro-pyridin-3-yl)-9-ethyl-9H-pyrido[3,4-b]indole] | 1100 nM | 20 to 50%
10 | CCn1c2cnccc2c2cc(Cl)cc(-c3cccnc3Cl)c21 [Example 56, 6-Chloro-8-(2-chloro-pyridin-3-yl)-9-ethyl-9H-pyrido[3,4-b]indole] | 460 nM | 20 to 50%
11 | FC(F)(F)Cn1c2cnccc2c2cc(Cl)cc(-c3cccnc3)c21 [Example 57, 6-Chloro-8-pyridin-3-yl-9-(2,2,2-trifluoro-ethyl)-9H-pyrido[3,4-b]indole] | 1600 nM | < 20%
12 | CCn1c2c(-c3cccnc3Cl)cc(Cl)cc2c2ccnc(C)c21 [Example 58, 6-Chloro-8-(2-chloro-pyridin-3-yl)-9-ethyl-1-methyl-9H-pyrido[3,4-b]indole] | 1500 nM | 20 to 50%
13 | CCn1c2c(-c3ccc(Cl)nc3Cl)cc(Cl)cc2c2ccnc(C)c21 [Example 59, 6-Chloro-8-(2,6-dichloro-pyridin-3-yl)-9-ethyl-1-methyl-9H-pyrido[3,4-b]indole] | 1300 nM | > 80%
14 | N#Cc1ccc(-c2cc(Cl)cc3c4ccncc4n(CC(F)(F)F)c23)cn1 [Example 60, 5-[6-Chloro-9-(2,2,2-trifluoro-ethyl)-9H-pyrido[3,4-b]indol-8-yl]-pyridine-2-carbonitrile] | 2500 nM | 20 to 50%
15 | FC(F)(F)Cn1c2cnccc2c2cc(Cl)cc(-c3cnc4ccccc4c3)c21 [Example 61, 6-Chloro-8-quinolin-3-yl-9-(2,2,2-trifluoro-ethyl)-9H-pyrido[3,4-b]indole] | 5600 nM | > 80%
16 | COc1ccc(-c2cc(Cl)cc3c4ccncc4n(CC(F)(F)F)c23)cn1 [Example 62, 6-Chloro-8-(6-methoxy-pyridin-3-yl)-9-(2,2,2-trifluoro-ethyl)-9H-pyrido[3,4-b]indole] | 1200 nM | > 80%
17 | Fc1ccc(-c2cc(Cl)cc3c4ccncc4n(CC(F)(F)F)c23)c(F)n1 [Example 63, 6-Chloro-8-(2,6-difluoro-pyridin-3-yl)-9-(2,2,2-trifluoro-ethyl)-9H-pyrido[3,4-b]indole] | 590 nM | 20 to 50%
18 | Cc1nccc2c1[nH]c1c(-c3ccc(Cl)nc3Cl)cc(Cl)cc12 [Example 64, 6-Chloro-8-(2,6-dichloro-pyridin-3-yl)-1-methyl-9H-pyrido[3,4-b]indole] | 3900 nM | > 80%
19 | Cc1nccc2c1[nH]c1c(-c3cccnc3)cc(Cl)cc12 [Example 65, 6-Chloro-1-methyl-8-pyridin-3-yl-9H-pyrido[3,4-b]indole] | 2300 nM | 20 to 50%
20 | FC(F)(F)Cn1c2cnccc2c2cc(Cl)cc(-c3ccc(Cl)nc3)c21 [Example 66, 6-Chloro-8-(6-chloro-pyridin-3-yl)-9-(2,2,2-trifluoro-ethyl)-9H-pyrido[3,4-b]indole] | 2100 nM | 50 to 80%
21 | CCn1c2cnccc2c2cc(Cl)cc(-c3ccc(C)nc3)c21 [Example 67, 6-Chloro-9-ethyl-8-(6-methyl-pyridin-3-yl)-9H-pyrido[3,4-b]indole] | 740 nM | 20 to 50%
22 | Cc1ccc(-c2cc(Cl)cc3c4ccncc4n(CC(F)(F)F)c23)cn1 [Example 68, 6-Chloro-8-(6-methyl-pyridin-3-yl)-9-(2,2,2-trifluoro-ethyl)-9H-pyrido[3,4-b]indole] | 7600 nM | 50 to 80%
23 | FC(F)(F)Cn1c2cnccc2c2cc(Cl)cc(-c3cnccc3Cl)c21 [Example 69, 6-Chloro-8-(4-chloro-pyridin-3-yl)-9-(2,2,2-trifluoro-ethyl)-9H-pyrido[3,4-b]indole] | 2000 nM | 50 to 80%
24 | CCn1c2cnccc2c2cc(Cl)cc(-c3ccc(OC)nc3)c21 [Example 70, 6-Chloro-9-ethyl-8-(6-methoxy-pyridin-3-yl)-9H-pyrido[3,4-b]indole] | 570 nM | > 80%
25 | FC(F)(F)Cn1c2cnccc2c2cc(Cl)cc(-c3cnc4[nH]ccc4c3)c21 [Example 71, 6-Chloro-8-(1H-pyrrolo[2,3-b]pyridin-5-yl)-9-(2,2,2-trifluoro-ethyl)-9H-pyrido[3,4-b]indole] | 1500 nM | < 20%
26 | COc1ccc(-c2cc(Cl)cc3c2[nH]c2cnccc23)cn1 [Example 72, 6-Chloro-8-(6-methoxy-pyridin-3-yl)-9H-pyrido[3,4-b]indole] | 5800 nM | 20 to 50%
27 | Clc1cc(-c2ccc(Cl)nc2)c2[nH]c3cnccc3c2c1 [Example 73, 6-Chloro-8-(6-chloro-pyridin-3-yl)-9H-pyrido[3,4-b]indole] | 440 nM | 20 to 50%
28 | Clc1cc(-c2ccc(Cl)nc2Cl)c2[nH]c3cnccc3c2c1 [Example 74, 6-Chloro-8-(2,6-dichloro-pyridin-3-yl)-9H-pyrido[3,4-b]indole] | 920 nM | 20 to 50%
29 | FC(F)(F)Cn1c2cnccc2c2cc(Cl)cc(-c3csc(Cl)c3)c21 [Example 76, 6-Chloro-8-(5-chloro-thiophen-3-yl)-9-(2,2,2-trifluoro-ethyl)-9H-pyrido[3,4-b]indole] |  | 20 to 50%
